Assay results reported in PubChem BioAssay (NCI).
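Results reflect a 48-hour exposure of cells in 96-well plates to compound at five concentrations. TGI denotes the concentration required for complete inhibition of growth.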

Assays:
Experiment in all cases: NCI tumour cell line growth inhibition, 48 h
EKVX NSCLC = tested on: EKVX NSCLC
K-562 leukemia = tested on: K-562 leukemia
LOX IMVI melanoma = tested on: LOX IMVI melanoma
MDA-N = tested on: MDA-N
MDA-MB-231 breast = tested on: MDA-MB-231 breast
OVCAR-3 ovarian = tested on: OVCAR-3 ovarian
SF-539 CNS = tested on: SF-539 CNS
OVCAR-8 ovarian = tested on: OVCAR-8 ovarian
SNB-19 CNS = tested on: SNB-19 CNS
UACC-62 melanoma = tested on: UACC-62 melanoma
HCT-15 colon = tested on: HCT-15 colon
A549 NSCLC = tested on: A549 NSCLC
SK-MEL-28 melanoma = tested on: SK-MEL-28 melanoma

SMILES | TGI (EKVX NSCLC) [µM] | TGI (K-562 leukemia) [µM] | TGI (LOX IMVI melanoma) [µM] | TGI (MDA-N) [µM] | TGI (MDA-MB-231 breast) [µM] | TGI (OVCAR-3 ovarian) [µM] | TGI (SF-539 CNS) [µM] | TGI (OVCAR-8 ovarian) [µM] | TGI (SNB-19 CNS) [µM] | TGI (UACC-62 melanoma) [µM] | TGI (HCT-15 colon) [µM] | TGI (A549 NSCLC) [µM] | TGI (SK-MEL-28 melanoma) [µM]
NC(=S)N/N=C/c1cc(CN2CCOCC2)c(N)cn1 | > 100 | > 100 | > 100 | > 100 | > 100 | > 100 | 84.2 | > 100 | > 100 | > 100 | > 100 | – | –
CC(=O)NNC=N/C(C#N)=C(\N)C#N | > 100 | > 100 | > 100 | > 100 | > 100 | > 100 | > 100 | > 100 | > 100 | > 100 | > 100 | > 100 | > 100
NN/C(=N\S(=O)(=O)c1cc(Cl)c(Oc2ccc([N+](=O)[O-])cc2Cl)c(Cl)c1)Nc1ccc(Cl)cc1 | 61.2 | > 100 | 45 | 33 | 39.9 | 33 | 31.3 | 60.4 | 62.4 | 28.8 | 41.7 | 41.8 | 48.3
CN1CC=C(OP(=O)(NCc2ccccc2)N(CCCl)CCCl)CC1 (stereo unspecified) | > 100 | > 100 | > 100 | > 100 | > 100 | > 100 | > 100 | > 100 | > 100 | > 100 | > 100 | – | > 100
CC(C)=CCC/C(C)=C/Cc1cc(/C=C/c2cc(O)c(CC=C(C)C)c(O)c2)cc(O)c1O | 7.46 | 10.4 | 7 | 12.1 | 23.8 | 5.83 | 13.8 | 14.9 | 16.6 | 9.88 | 11.9 | 17.5 | 17.5
CN(C(=O)C1=CCCCCC1)c1ccccc1I | 80.4 | > 100 | > 100 | > 100 | > 100 | > 100 | – | > 100 | > 100 | > 100 | > 100 | > 100 | > 100
CC(=O)c1c2c(cc3c1CC1(Cc4cc5c(cc4C1)CCC5)C3)CCC2 | > 100 | > 100 | > 100 | > 100 | > 100 | > 100 | > 100 | > 100 | > 100 | – | > 100 | > 100 | > 100
